# Measurements from patent US20240174662A1, “SMALL MOLECULE INHIBITORS OF SALT INDUCIBLE KINASES” (Janssen Biotech, Inc., priority 2021, published 2024).
# Molecular target: SIK2 (Homo sapiens (Human), UniProt Q9H0K1)
# Test: SIK2 Enzymatic Assay Version 2 (High ATP)
# Assay type: biochemical
# Conditions: 3 mM ATP and 200 μM HDAC5tide final, ADP-Glo Max luminescence
# In short: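 Run at room temperature; SIK2 enzyme at 6 nM (2× final) preincubated with compound 30 min before reaction. ADP formation detected by ADP-Glo Max (2 h reagent, 1 h detection) with luminescence read-out.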
# Chain of SIK2 (Q9H0K1 whole entry, species assumed): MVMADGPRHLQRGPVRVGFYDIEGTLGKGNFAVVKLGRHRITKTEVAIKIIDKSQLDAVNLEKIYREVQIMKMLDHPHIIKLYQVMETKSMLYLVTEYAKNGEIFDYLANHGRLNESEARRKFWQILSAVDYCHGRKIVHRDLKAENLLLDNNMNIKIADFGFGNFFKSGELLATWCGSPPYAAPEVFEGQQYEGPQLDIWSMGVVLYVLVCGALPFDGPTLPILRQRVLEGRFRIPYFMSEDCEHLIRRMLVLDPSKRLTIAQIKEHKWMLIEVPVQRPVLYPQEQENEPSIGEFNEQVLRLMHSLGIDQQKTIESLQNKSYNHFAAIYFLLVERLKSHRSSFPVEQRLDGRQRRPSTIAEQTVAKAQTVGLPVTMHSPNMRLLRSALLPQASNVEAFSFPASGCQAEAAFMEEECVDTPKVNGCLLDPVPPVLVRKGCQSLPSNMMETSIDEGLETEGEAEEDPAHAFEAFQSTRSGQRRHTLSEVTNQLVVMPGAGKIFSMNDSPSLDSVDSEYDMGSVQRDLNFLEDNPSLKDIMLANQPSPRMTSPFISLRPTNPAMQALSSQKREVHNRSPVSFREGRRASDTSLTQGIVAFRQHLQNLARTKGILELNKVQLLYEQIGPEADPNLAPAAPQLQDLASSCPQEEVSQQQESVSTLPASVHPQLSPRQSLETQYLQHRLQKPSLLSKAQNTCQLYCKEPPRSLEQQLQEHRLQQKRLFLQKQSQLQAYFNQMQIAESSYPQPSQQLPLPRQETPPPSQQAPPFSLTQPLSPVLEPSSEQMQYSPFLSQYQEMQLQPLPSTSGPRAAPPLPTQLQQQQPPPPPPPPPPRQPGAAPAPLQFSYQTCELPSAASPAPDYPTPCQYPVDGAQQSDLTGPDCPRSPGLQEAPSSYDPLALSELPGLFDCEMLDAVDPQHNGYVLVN
row,IC50 [nM],Structure (SMILES)
1,14.9,"CN1CC[C@@H]1COc1cnn(C)c1-c1ccn2nc(Nc3cn(C)nn3)cc2c1 [Example 124, 5-[2-methyl-4-[[(2R)-1-methylazetidin-2-yl]methoxy]pyrazol-3-yl]-N-(1-methyltriazol-4-yl)pyrazolo[1,5-a]pyridin-2-amine]"
2,1.3,"CN1CC[C@@H]1COc1cnn(C)c1-c1ccn2nc(Nc3ccc4cnccc4n3)cc2c1 [Example 125, N-[5-[2-methyl-4-[[(2R)-1-methylazetidin-2-yl]methoxy]pyrazol-3-yl]pyrazolo[1,5-a]pyridin-2-yl]-1,6-naphthyridin-2-amine]"
3,4.1,"CNC(=O)c1ccc(Nc2cc3cc(-c4c(OC[C@H]5CCN5C)cnn4C)ccn3n2)nc1 [Example 126, N-methyl-6-[[5-[2-methyl-4-[[(2R)-1-methylazetidin-2-yl]methoxy]pyrazol-3-yl]pyrazolo[1,5-a]pyridin-2-yl]amino]pyridine-3-carboxamide]"
4,11,"COc1cc(Nc2cc3cc(-c4c(OC[C@H]5CCN5C)cnn4C)ccn3n2)ncn1 [Example 127, N-(6-methoxypyrimidin-4-yl)-5-[2-methyl-4-[[(2R)-1-methylazetidin-2-yl]methoxy]pyrazol-3-yl]pyrazolo[1,5-a]pyridin-2-amine]"
5,< 0.847,"CN1CC[C@@H]1COc1cnn(C)c1-c1ccn2nc(Nc3ccnc(NC4CC4)n3)cc2c1 [Example 128, N2-cyclopropyl-N4-[5-[2-methyl-4-[[(2R)-1-methylazetidin-2-yl]methoxy]pyrazol-3-yl]pyrazolo[1,5-a]pyridin-2-yl]pyrimidine-2,4-diamine]"
6,< 0.847,"Cc1cc(Nc2cc3cc(-c4c(OC[C@H]5CCN5C)cnn4C)ccn3n2)nc(NC2CCCC2)n1 [Example 129, N2-cyclopentyl-6-methyl-N4-[5-[2-methyl-4-[[(2R)-1-methylazetidin-2-yl]methoxy]pyrazol-3-yl]pyrazolo[1,5-a]pyridin-2-yl]pyrimidine-2,4-diamine]"
7,< 0.847,"CCn1ncc(OC[C@H]2CCN2C)c1-c1ccn2nc(Nc3cc(C)nc(C)n3)cc2c1 [Example 130, N-(2,6-dimethylpyrimidin-4-yl)-5-[2-ethyl-4-[[(2R)-1-methylazetidin-2-yl]methoxy]pyrazol-3-yl]pyrazolo[1,5-a]pyridin-2-amine]"
8,< 0.847,"[2H]C([2H])([2H])n1ncc(OC[C@H]2CCN2C)c1-c1ccn2nc(Nc3cc(C)nc(C)n3)cc2c1 [Example 131, N-(2,6-dimethylpyrimidin-4-yl)-5-[4-[[(2R)-1-methylazetidin-2-yl]methoxy]-2-(trideuteriomethyl)pyrazol-3-yl]pyrazolo[1,5-a]pyridin-2-amine]"
9,8.9,"CN1CC[C@@H]1COc1cnn(C)c1-c1ccn2nc(Nc3cnc(C(=O)NCC(C)(C)O)cn3)cc2c1 [Example 132, N-(2-hydroxy-2-methyl-propyl)-5-[[5-[2-methyl-4-[[(2R)-1-methylazetidin-2-yl]methoxy]pyrazol-3-yl]pyrazolo[1,5-a]pyridin-2-yl]amino]pyrazine-2-carboxamide]"
10,7.1,"CNC(=O)c1cnc(Nc2cc3cc(-c4c(OC[C@H]5CCN5C)cnn4C)ccn3n2)cn1 [Example 133, N-methyl-5-[[5-[2-methyl-4-[[(2R)-1-methylazetidin-2-yl]methoxy]pyrazol-3-yl]pyrazolo[1,5-a]pyridin-2-yl]amino]pyrazine-2-carboxamide]"
11,2.8,"Cc1cc(Nc2cc3cc(-c4c(OC[C@@H]5CCN5C)cnn4C)ccn3n2)nc(C2CC2)n1 [Example 134, N-(2-cyclopropyl-6-methyl-pyrimidin-4-yl)-5-[2-methyl-4-[[(2S)-1-methylazetidin-2-yl]methoxy]pyrazol-3-yl]pyrazolo[1,5-a]pyridin-2-amine]"
12,5.8,"CN1CC[C@@H]1COc1cnn(C)c1-c1ccn2nc(Nc3ccc(C(=O)NCCC#N)cn3)cc2c1 [Example 135, N-(2-cyanoethyl)-6-[[5-[2-methyl-4-[[(2R)-1-methylazetidin-2-yl]methoxy]pyrazol-3-yl]pyrazolo[1,5-a]pyridin-2-yl]amino]pyridine-3-carboxamide]"
13,2.3,"Cc1cc(Nc2cc3cc(-c4c(OC[C@H]5CCN5C)cnn4C)ccn3n2)nc2c1CCC2 [Example 136, N-(4-methyl-6,7-dihydro-5H-cyclopenta[b]pyridin-2-yl)-5-[2-methyl-4-[[(2R)-1-methylazetidin-2-yl]methoxy]pyrazol-3-yl]pyrazolo[1,5-a]pyridin-2-amine]"
14,16.9,"CCc1cc(Nc2cc3cc(-c4c(OC[C@@H]5CCN5C)cnn4C)ccn3n2)nc(C)n1 [Example 137, N-(6-ethyl-2-methyl-pyrimidin-4-yl)-5-[2-methyl-4-[[(2S)-1-methylazetidin-2-yl]methoxy]pyrazol-3-yl]pyrazolo[1,5-a]pyridin-2-amine]"
15,40.3,"Cc1ncc(Nc2cc3cc(-c4c(OC[C@@H]5CCN5C)cnn4C)ccn3n2)nc1C [Example 138, N-(5,6-dimethylpyrazin-2-yl)-5-[2-methyl-4-[[(2S)-1-methylazetidin-2-yl]methoxy]pyrazol-3-yl]pyrazolo[1,5-a]pyridin-2-amine]"
16,19.7,"Cc1cc(Nc2cc3cc(-c4c(OC[C@@H]5CCN5C)cnn4C)ccn3n2)nc(C)n1 [Example 139, N-(2,6-dimethylpyrimidin-4-yl)-5-[2-methyl-4-[[(2S)-1-methylazetidin-2-yl]methoxy]pyrazol-3-yl]pyrazolo[1,5-a]pyridin-2-amine]"
17,1.2,"Cc1cc(Nc2cc3cc(-c4c(OC[C@H]5CCN5C)cnn4C(F)F)ccn3n2)nc(C)n1 [Example 140, 5-[2-(difluoromethyl)-4-[[(2R)-1-methylazetidin-2-yl]methoxy]pyrazol-3-yl]-N-(2,6-dimethylpyrimidin-4-yl)pyrazolo[1,5-a]pyridin-2-amine]"
18,1,"Cc1cnnc(Nc2cc3cc(-c4c(OC[C@H]5CCN5C)cnn4C)ccn3n2)c1 [Example 141, 5-[2-methyl-4-[[(2R)-1-methylazetidin-2-yl]methoxy]pyrazol-3-yl]-N-(5-methylpyridazin-3-yl)pyrazolo[1,5-a]pyridin-2-amine]"
19,2.8,"CN1CC[C@@H]1COc1cnn(C)c1-c1ccn2nc(Nc3cnn(C)c3)cc2c1 [Example 142, 5-[2-methyl-4-[[(2R)-1-methylazetidin-2-yl]methoxy]pyrazol-3-yl]-N-(1-methylpyrazol-4-yl)pyrazolo[1,5-a]pyridin-2-amine]"
20,2.4,"CN1CC[C@@H]1COc1cnn(C)c1-c1ccn2nc(Nc3ccc(=O)n(C)n3)cc2c1 [Example 143, 2-methyl-6-[[5-[2-methyl-4-[[(2R)-1-methylazetidin-2-yl]methoxy]pyrazol-3-yl]pyrazolo[1,5-a]pyridin-2-yl]amino]pyridazin-3-one]"
21,< 0.847,"Cc1cc(Nc2cc3cc(-c4c(OC[C@H]5CCN5C)cnn4C)ccn3n2)nc(C2CC2)n1 [Example 144, N-(2-cyclopropyl-6-methyl-pyrimidin-4-yl)-5-[2-methyl-4-[[(2R)-1-methylazetidin-2-yl]methoxy]pyrazol-3-yl]pyrazolo[1,5-a]pyridin-2-amine]"
22,< 0.847,"CCc1cc(Nc2cc3cc(-c4c(OC[C@H]5CCN5C)cnn4C)ccn3n2)nc(C)n1 [Example 145, N-(6-ethyl-2-methyl-pyrimidin-4-yl)-5-[2-methyl-4-[[(2R)-1-methylazetidin-2-yl]methoxy]pyrazol-3-yl]pyrazolo[1,5-a]pyridin-2-amine]"
23,< 0.847,"COc1nc(C)cc(Nc2cc3cc(-c4c(OC[C@H]5CCN5C)cnn4C)ccn3n2)n1 [Example 146, N-(2-methoxy-6-methyl-pyrimidin-4-yl)-5-[2-methyl-4-[[(2R)-1-methylazetidin-2-yl]methoxy]pyrazol-3-yl]pyrazolo[1,5-a]pyridin-2-amine]"
24,0.9,"COc1nnc(Nc2cc3cc(-c4c(OC[C@H]5CCN5C)cnn4C)ccn3n2)cc1C [Example 147, N-(6-methoxy-5-methyl-pyridazin-3-yl)-5-[2-methyl-4-[[(2R)-1-methylazetidin-2-yl]methoxy]pyrazol-3-yl]pyrazolo[1,5-a]pyridin-2-amine]"
25,< 0.847,"Cc1cn2nc(Nc3cc4cc(-c5c(OC[C@H]6CCN6C)cnn5C)ccn4n3)ccc2n1 [Example 148, 2-methyl-N-[5-[2-methyl-4-[[(2R)-1-methylazetidin-2-yl]methoxy]pyrazol-3-yl]pyrazolo[1,5-a]pyridin-2-yl]imidazo[1,2-b]pyridazin-6-amine]"
26,2,"CN1CC[C@@H]1COc1cnn(C)c1-c1ccn2nc(Nc3ccc4nccn4n3)cc2c1 [Example 149, N-[5-[2-methyl-4-[[(2R)-1-methylazetidin-2-yl]methoxy]pyrazol-3-yl]pyrazolo[1,5-a]pyridin-2-yl]imidazo[1,2-b]pyridazin-6-amine]"
27,7.6,"CN1CC[C@@H]1COc1cnn(C)c1-c1ccn2nc(Nc3cnc(C(F)(F)F)cn3)cc2c1 [Example 150, 5-[2-methyl-4-[[(2R)-1-methylazetidin-2-yl]methoxy]pyrazol-3-yl]-N-[5-(trifluoromethyl)pyrazin-2-yl]pyrazolo[1,5-a]pyridin-2-amine]"
28,< 0.847,"Cc1cc(Nc2cc3cc(-c4c(OC[C@H]5CCN5C)cnn4C)ccn3n2)nc(C(C)(C)C)n1 [Example 151, N-(2-tert-butyl-6-methyl-pyrimidin-4-yl)-5-[2-methyl-4-[[(2R)-1-methylazetidin-2-yl]methoxy]pyrazol-3-yl]pyrazolo[1,5-a]pyridin-2-amine]"
29,< 0.847,"Cc1cc(Nc2cc3cc(-c4c(OC[C@H]5CCN5C)cnn4C)ccn3n2)nn(C)c1=O [Example 152, 2,4-dimethyl-6-[[5-[2-methyl-4-[[(2R)-1-methylazetidin-2-yl]methoxy]pyrazol-3-yl]pyrazolo[1,5-a]pyridin-2-yl]amino]pyridazin-3-one]"
30,< 0.847,"Cc1cc(Nc2cc3cc(-c4c(OC[C@H]5CCN5C)cnn4C)ccn3n2)nc(CC2CC2)n1 [Example 153, N-[2-(cyclopropylmethyl)-6-methyl-pyrimidin-4-yl]-5-[2-methyl-4-[[(2R)-1-methylazetidin-2-yl]methoxy]pyrazol-3-yl]pyrazolo[1,5-a]pyridin-2-amine]"
